Experiment: mn = molality of the nth substance listed, in mol/kg
Details: 101 kPa, Liquid

O=C(O)/C=C\C(=O)O [cis-1,4-butenedioic acid] + O
mass density [kg/m3]
Details | 288.15 K | 293.15 K | 298.15 K | 303.15 K | 308.15 K | 313.15 K | 318.15 K | 323.15 K | 328.15 K | 333.15 K
m1 = 0.09831 | 1003.24 | 1002.29 | 1001.04 | 999.59 | 997.91 | 996.07 | 994.03 | 991.81 | 989.41 | 986.88
m1 = 0.4902 | 1018.5 | 1017.26 | 1015.79 | 1014.1 | 1012.25 | 1010.18 | 1007.98 | 1005.58 | 1003.01 | 1000.36
m1 = 0.979 | 1035.99 | 1034.47 | 1032.74 | 1030.81 | 1028.74 | 1026.46 | 1024.06 | 1021.47 | 1018.75 | 1015.92
